In US11065616B2, “Methods of making microfluidic devices” (KING ABDULLAH UNIVERSITY OF SCIENCE AND TECHNOLOGY, priority 2015, dated 2021):

Test system: Hela cells
Test: Cytotoxicity of Doxorubicin concentrations generated by the microfluidic gradient generator (CCK-8)
Assay type: cell-based, Human
Details: gradient 100-0 μg/ml DOX at the outlet ports, 24 h incubation, surface modified channels
Experimental: Hela cells were cultured in EMEM media supplemented with 10% fetal bovine serum (FBS) and 1% penicillin-streptomycin at 37° C. in a 5% CO2 humidified atmosphere. After cell detachment, the cell suspension was centrifuged, the pallet was collected, and cells were counted for further plating. Hela cells were seeded in 96 well plates at a density of 5×10^3/well. Alter 24 h, cells were treated with five different concentrations of the anticancer drug Doxorubicin (DOX) generated by the microfluidic gradient generator at a flow rate of 8.5 μl/min. The incubation of cells with test samples lasts for 24 h at 37° C. Then, the culture medium was discarded, and 100 μL of CCK8 solution in MEM media were added to each well and incubated for 4 h in darkness. The absorbance values were measured at […] using the xMark™ microplate absorbance spectrophotometer.
Two types of 3D printer resins (1) FormLabs clear and (2) Spot-Elastic were used to build microfluidic devices. The media for cell cultures were injected by passing the EMEM media through the reported microfluidic gradient generator, Both the inlets were fed with media for the first experiment. […] Doxorubicin was introduced to the cell culture after surface modification, and only one of the inlets was fed with Doxorubicin incorporated EMEM media and the other was fed with normal (Doxorubicin-free) EMEM media. […]

## COc1cccc2c1C(=O)c1c(O)c3c(c(O)c1C2=O)C[C@@](O)(C(=O)CO)C[C@@H]3O[C@H]1C[C@H](N)[C@H](O)[C@H](C)O1 [DOX, Doxorubicin]
  cell viability versus DOX concentration (in words): higher viability with a decrease in concentration of DOX
